# Data taken from patent publication US20260144770A1, “COMPOSITION FOR INHIBITING SEBUM SECRETION CONTAINING A THYMOL ESTER-BASED COMPOUND” (AMOREPACIFIC CORPORATION, priority 2024, published 2026).
# System: Human sebocytes
# Test: Test of sebum secretion-inhibiting effect using human sebocytes (linoleic acid-induced, Bodipy lipid staining)
# Type: cell-based
# Description: Human sebocytes were cultured for 24 hours in an environment of 37° C. and 5% CO2 with Sebocyte Complete Culture Media (Celprogen), and then treated with 100 μM linoleic acid and 0.1, 0.5, 1, and 2 ppm Melasolv and cultured for another 48 hours.
# Thereafter, the cells were fixed with formaldehyde, and lipids were stained with 2 μM Bodipy. Fluorescence intensity was measured at a specific wavelength (Excitation/Emission: 485/528 nm) using a Fluorescent Plate Reader.
SMILES,"amount of sebum production (concentration dependence) (0.1, 0.5, 1, and 2 ppm Melasolv together with 100 μM linoleic acid, 48 hours (FIG. 1))","sebum production seen in fluorescence photograph (FIG. 2) (2 ppm Melasolv, naked-eye observation of Bodipy fluorescence photograph)","inhibition at 2 ppm (Homo sapiens, 2 ppm Melasolv with 100 μM linoleic acid, 48 hours, based on the amount of sebum production induced by linoleic acid, Bodipy fluorescence (FIG. 1)) [%]","sebum production, percentage compared to the untreated control group (100%) (100 μM linoleic acid alone (inducer), 48 hours, Bodipy fluorescence) [%]"
"COc1cc(/C=C/C(=O)Oc2cc(C)ccc2C(C)C)cc(OC)c1OC [Melasolv, (5-methyl-2-propan-2-ylphenyl) (E)-3-(3,4,5-trimethoxyphenyl)prop-2-enoate]",decreased in proportion to the concentration,most inhibited,~60.3,
"CCCCC/C=C\C/C=C\CCCCCCCC(=O)O [linoleic acid, reference compound]",,,,142
